Measured values as given in publication PMC6151961 (Journal of Enzyme Inhibition and Medicinal Chemistry, 2018).
Where two headings read alike, the source gives them in different places.

Tests used:
[1] = molecular target: T1, CA IX (Homo sapiens, UniProt Q16790); assay: biochemical; settings: for Ki: read-out: pKi (exp.) (converted)
[2] = molecular target: T1, CA IX; settings: read-out: Ki, cited from earlier work
[3] = experimental value from the library Ki (IDs A…, B…), values equal log10 of Ki in nM
[4] = observed Ki of library compounds (IDs A…, B…), ref ChEMBL and BindingDB
[5] = experimental value used for the QSPR model, library compounds (IDs A…, B…), equals log10 of Ki in nM
[6] = library compounds with IDs A… and B…, from observed Ki (nM)
[7] = library compounds with IDs A… and B…, observed Ki, ref ChEMBL, BindingDB

Structure (SMILES)	Ki [2, 4]	Ki [1]	Ki [2]	other results
CCO[C@H]1Oc2ccccc2C(=O)[C@H]1/C=N\c1ccc(S(=O)(=O)Nc2cc(C)on2)cc1 [B0311]	24 nM	–	–	Ki [1, 3]: 24 nM
NS(=O)(=O)c1ccc(NC(=S)Nc2ccc(C3c4ccc(O)cc4Oc4cc(O)ccc43)c(C(=O)O)c2)c(F)c1 [B0365]	30 nM	–	–	Ki [1, 5]: 30 nM
COC(=O)[C@H]1O[C@H](SNCc2ccc(S(N)(=O)=O)cc2)[C@@H](OC(C)=O)[C@H](OC(C)=O)[C@H]1OC(C)=O [B0598]	102 nM	–	–	Ki [1, 5]: 102 nM
C[C@@H](Sc1nc(-c2ccc(Cl)c(F)c2)c(C#N)c(=O)[nH]1)C(=O)Nc1ccc(S(N)(=O)=O)cc1 [A1157]	37 nM	–	–	Ki [1, 3]: 37 nM
COC(=O)[C@@H]1O[C@H](S(N)(=O)=O)[C@@H](OC(C)=O)[C@H](OC(C)=O)[C@@H]1OC(C)=O [B0808]	4150 nM	–	–	Ki [1, 5]: 4150 nM
NS(=O)(=O)c1ccc(C(=O)NCc2cn([C@H]3O[C@@H](CO)[C@H](O)[C@@H](O)[C@@H]3O)nn2)cc1 [B0735]	–	442 nM	442 nM	–
C/C(=N/Nc1ccc(S(N)(=O)=O)cc1)c1cc2cc(Br)ccc2oc1=O [B0309]	–	24 nM	24 nM	–
NS(=O)(=O)c1ccc(N2C(=O)/C(=C\c3coc4ccccc4c3=O)N=C2c2ccccc2)cc1 [B0301]	–	–	–	Ki [1, 6]: 23 nM; Ki [2, 7]: 23 nM
CCCN(CCC)S(=O)(=O)c1ccc(C(=O)N[C@H](Cc2ccccc2)C(N)=O)cc1 [B0320]	–	25 nM	25 nM	–
CN1N[C@@H](S(N)(=O)=O)S[C@H]1NC(=O)CCSSCCC(=O)/N=c1\sc(S(N)(=O)=O)nn1C [A0620]	9.3 nM	–	–	Ki [1, 3]: 9.29 nM
C[C@H](Nc1nc(NCc2ccc(S(N)(=O)=O)cc2)nc(N[C@H](C)C(=O)O)n1)C(=O)O [A0552]	–	8.49 nM	8.5 nM	–
COC(=O)[C@H]1C[C@H](OS(N)(=O)=O)CN1S(=O)(=O)[C@H]1O[C@H](COC(C)=O)[C@@H](OC(C)=O)[C@H](OC(C)=O)[C@H]1OC(C)=O [B0015]	–	–	–	Ki [1, 6]: 2 nM; Ki [2, 7]: 2 nM
COC(=O)C(=O)[C@H]1C(=O)Nc2ccccc21 [B0865]	8020 nM	–	–	Ki [1, 5]: 8020 nM
N#C[C@H]1C(COc2ccc(S(N)(=O)=O)cc2)=NON1O [A0707]	–	–	–	Ki [1, 6]: 11.3 nM; Ki [2, 7]: 11.3 nM
Nc1nc(=O)[nH]c2c1c(-c1ccc(Br)cc1)cn2-c1ccc(S(N)(=O)=O)cc1 [B0312]	–	24 nM	24 nM	–
NS(=O)(=O)c1ccc(N[C@H]2SC[C@@H](c3ccc(Cl)cc3Cl)N2C2CCCCC2)cc1 [B0713]	342 nM	–	–	Ki [1, 5]: 342 nM
Oc1cc(O)c2c(c1)O[C@@H](c1ccc(O)c(O)c1)[C@H](O)C2 [B0819]	–	–	–	Ki [1, 6]: 5040 nM; Ki [2, 7]: 5030 nM

Structure (SMILES)	Ki [2, 4]	Ki [1]	Ki [2]	other results
NS(=O)(=O)c1ccc(C(=O)NNC(=O)Nc2ccc([C@]34C[C@H]5C[C@H](C[C@H](C5)C3)C4)cc2)cc1 [A0952]	–	24 nM	24 nM	–
CN(C)C1=CCN(c2ccncc2S(N)(=O)=O)C=C1 [B0189]	9 nM	–	–	Ki [1, 5]: 8.99 nM
CC(=O)OC[C@@H]1O[C@@H](NS(N)(=O)=O)C[C@@H](OC(C)=O)[C@@H]1OC(C)=O [B0263]	–	16 nM	16 nM	–
NS(=O)(=O)c1ccc(-n2cc(/C=N/Nc3nc(-c4cc5cc(Cl)ccc5oc4=O)cs3)c(-c3ccc(F)cc3)n2)cc1 [B0019]	2.5 nM	–	–	Ki [1, 3]: 2.5 nM
COc1cc(/C=C\C(=O)OCCCCO[N+](=O)[O-])ccc1OC(=O)c1cccc(S(=O)(=O)Nc2nnc(S(N)(=O)=O)s2)c1 [B0659]	–	177 nM	177 nM	–
NS(=O)(=O)c1ccc(-n2cc(/C=N/Nc3nc(-c4cc5ccccc5oc4=O)cs3)c(-c3ccccc3)n2)cc1 [B0285]	20 nM	–	–	Ki [1, 5]: 20 nM
Cc1ncc(-c2ccc(S(N)(=O)=O)s2)o1 [B0222]	11 nM	–	–	Ki [1, 3]: 11 nM
CC(=O)OC[C@@H]1O[C@@H](OCc2cn(-c3ccc(S(N)(=O)=O)cc3)nn2)[C@H](OC(C)=O)[C@@H](OC(C)=O)[C@H]1OC(C)=O [B0606]	–	107 nM	107 nM	–
COc1ccc2c(c1)CCN(S(N)(=O)=O)[C@@H]2c1ccc(N)cc1 [B0230]	–	–	–	Ki [1, 6]: 12 nM; Ki [2, 7]: 12 nM
C[C@H]1O[C@@H](NS(N)(=O)=O)[C@@H](O)[C@H](O)[C@H]1O [B0772]	–	899 nM	900 nM	–
COc1cccc(/C=C\C(=O)C[C@@H]2O[C@@H](COC(C)=O)[C@@H](OC(C)=O)[C@@H](OC(C)=O)[C@H]2OC(C)=O)c1 [B0574]	–	–	–	Ki [1, 6]: 92.9 nM; Ki [2, 7]: 93 nM
NS(=O)(=O)c1nnc(NC(=O)[C@]23C[C@H]4C[C@H](C[C@H](C4)C2)C3)s1 [A0389]	–	6.4 nM	6.4 nM	–
NS(=O)(=O)c1ccc(C(=O)OCc2cn([C@@H]3O[C@H](CO)[C@@H](O)[C@@H](O)[C@@H]3O)nn2)cc1 [B0491]	–	65 nM	65 nM	–
CC(=O)/N=C1\SC(S(N)(=O)=O)=N[C@@H]1C [B0187]	–	8.99 nM	9 nM	–
O=C(N/N=C\c1cccc(Br)c1)Nc1nnc(S)s1 [B0891]	–	–	–	Ki [1, 6]: 10100 nM; Ki [2, 7]: 10100 nM
NS(=O)(=O)c1ccc(-n2cc(-c3ccc(Br)cc3)c3c2ncn2nnnc32)cc1 [B0028]	–	–	–	log10 of Ki in nM [1, 6]: 0.447
